# “And” between values parts separate entries of the source, which are not always exact repeats. Equal values may be shown once. Where a name gives a salt, the structure may show the parent alone. Read-outs that look alike come from different tables or passages of the source.
# What was measured:
# 5-HT uptake = experiment: Functional monoamine uptake: 5-HT uptake, rat brain synaptosomes; assay type: biochemical; conditions: for IC50: rat brain synaptosomes, [3H]5-HT, 15 min./37° C.; for Blocking 5-HT uptake compared with racemic tramadol and ODMT: comparison in words of Table 1 values
# κ receptor = molecular target: T1, κ receptor (Cavia porcellus, UniProt P41144); experiment: κ opioid receptor binding, [3H]U 69593; conditions: guinea-pig cerebellum, [3H]U 69593 0.7 nM, 80 minutes/22° C.
# T1 construct: Following incubation, the membranes were rapidly filtered under vacuum through glass fiber filters; from tissue
# δ receptor = molecular target: T2, δ receptor (Cavia porcellus, UniProt A0A286XTF2); experiment: δ opioid receptor binding, [3H]DPDPE; parameters: species or system Guinea-pig
# T2 construct: Following incubation, the membranes were rapidly filtered under vacuum through glass fiber filters; from tissue
# μ receptor [1] = molecular target: T3, μ receptor (Rattus norvegicus, UniProt P33535); experiment: biochemical; conditions: IC50, opioid binding, rat cerebral cortex, [3H]DAMGO 1 nM, 60 minutes/22° C.
# NE uptake = assay type: biochemical, Rat; conditions: for IC50: read-out: IC50, functional monoamine uptake, NE
# μ receptor [2] = molecular target: T3, μ receptor; conditions: for Affinity for the μ receptor compared with ODMT and racemic tramadol: comparison in words of Table 1 values
# DA uptake = experiment: Functional monoamine uptake: DA uptake, rat corpora striatum synaptosomes; assay type: biochemical; conditions: [3H]DA, 15 min./37° C.
# Method: Radioactivity was determined with a scintillation counter (Topcount, Packard) using a liquid scintillation cocktail (Microscint 0, Packard).
# These parameters were obtained by Hill equation curve fitting.
# [3] = rat hypothalamus, [3H]NE, 20 min./37° C.
# T1 sequence (P41144 whole entry): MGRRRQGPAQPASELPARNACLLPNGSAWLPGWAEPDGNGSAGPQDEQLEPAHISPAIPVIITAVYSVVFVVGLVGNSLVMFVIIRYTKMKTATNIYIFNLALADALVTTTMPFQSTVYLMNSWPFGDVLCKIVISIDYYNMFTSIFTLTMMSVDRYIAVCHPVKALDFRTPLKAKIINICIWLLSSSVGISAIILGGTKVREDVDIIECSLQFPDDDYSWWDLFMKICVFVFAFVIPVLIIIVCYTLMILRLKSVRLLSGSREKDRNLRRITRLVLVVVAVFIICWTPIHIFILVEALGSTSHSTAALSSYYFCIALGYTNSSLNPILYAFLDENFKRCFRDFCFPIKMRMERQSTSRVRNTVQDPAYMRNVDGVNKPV
# T2 sequence (A0A286XTF2 1-366): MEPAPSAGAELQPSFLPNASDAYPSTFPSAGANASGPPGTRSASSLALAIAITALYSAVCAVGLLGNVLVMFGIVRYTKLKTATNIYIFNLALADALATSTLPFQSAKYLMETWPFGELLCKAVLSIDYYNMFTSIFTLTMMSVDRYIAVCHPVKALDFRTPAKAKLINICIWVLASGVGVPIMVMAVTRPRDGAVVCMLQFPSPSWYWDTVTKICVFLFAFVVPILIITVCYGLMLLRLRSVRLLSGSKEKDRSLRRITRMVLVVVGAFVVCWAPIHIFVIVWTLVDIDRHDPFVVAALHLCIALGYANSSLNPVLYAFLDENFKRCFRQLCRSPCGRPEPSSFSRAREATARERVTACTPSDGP
# T3 sequence (P33535 whole entry): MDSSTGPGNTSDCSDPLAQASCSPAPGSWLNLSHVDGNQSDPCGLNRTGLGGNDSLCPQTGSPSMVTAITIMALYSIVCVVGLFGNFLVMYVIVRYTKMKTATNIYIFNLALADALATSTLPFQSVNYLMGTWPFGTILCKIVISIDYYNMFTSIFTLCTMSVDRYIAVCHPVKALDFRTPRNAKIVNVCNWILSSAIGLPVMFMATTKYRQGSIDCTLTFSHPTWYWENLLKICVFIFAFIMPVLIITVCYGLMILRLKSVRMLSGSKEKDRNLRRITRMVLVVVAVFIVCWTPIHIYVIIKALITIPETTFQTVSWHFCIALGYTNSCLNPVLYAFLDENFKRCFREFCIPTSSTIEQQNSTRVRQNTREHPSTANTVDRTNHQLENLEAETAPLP
Compound,IC50 (5-HT uptake) [µM],IC50 (κ receptor) [µM],IC50 (δ receptor) [µM],IC50 (μ receptor [1]),IC50 (NE uptake),IC50 (NE uptake; [3]) [µM],other results
"CN(C)CC1CCCCC1(O)c1cccc(O)c1 (single isomer, unassigned) [(R,R)-ODMT, O-desmethyltramadol, reference compound]",3.3,1.61,4.53,–,–,–,–
"COc1cccc(C2(O)CCCCC2CN(C)C)c1 (racemic) [(R,R/S,S)-Tramadol, reference compound]",–,–,–,8.27 µM and 7.64 µM,–,–,–
"COc1cccc(C2(OC)CCCCC2CN(C)C)c1 [(R,R)-OMT, (R,R)-(+)-O-Methyltramadol]",0.65,–,–,7.67 µM,4 µM,–,"Blocking 5-HT uptake compared with racemic tramadol and ODMT (5-HT uptake): more effective at blocking at 5-HT uptake than racemic tramadol, (R,R)- or (S,S)-ODMT or racemic ODMT"
"CN(C)CC1CCCCC1(O)c1cccc(O)c1 (racemic) [(R,R/S,S)-ODMT, O-desmethyltramadol, reference compound]",4,3.15,7.71,–,–,–,–
"(+/−)-trans-O-Methyldidesmethyltramadol HCl [(R,S/S,R)-NDMOMT]",16,–,–,–,–,–,–
"O-methyl tramadol [(S,S)-OMT]",–,–,–,–,16 µM,–,–
"CNCCCC1c2ccccc2C=Cc2ccccc21 [Protriptyline, reference compound]",–,–,–,–,0.04 µM and 0.026 µM,–,–
"COc1cccc(C2(OC)CCCCC2CN(C)C)c1 (racemic) [(R,R/S,S)-OMT, O-Methyltramadol]",0.55,–,–,7.87 µM,0.029 µM,–,"Blocking 5-HT uptake compared with racemic tramadol and ODMT (5-HT uptake): more effective at blocking at 5-HT uptake than racemic tramadol, (R,R)- or (S,S)-ODMT or racemic ODMT; Blocking NE uptake compared with racemic tramadol or (S,S)-ODMT (NE uptake): more effective at blocking NE uptake than racemic tramadol or (S,S)-ODMT"
"COc1cccc([C@@]2(OC)CCCC[C@H]2CN(C)C)c1.O=C(O)/C=C/C(=O)O (relative stereo) [(R,S/S,R)-OMT, (+/−)-trans-O-Methyltramadol Fumaric Acid]",0.29,–,–,–,–,0.56,"Blocking 5-HT uptake compared with racemic tramadol and ODMT (5-HT uptake): more effective at blocking at 5-HT uptake than racemic tramadol, (R,R)- or (S,S)-ODMT or racemic ODMT; IC50 (μ receptor [2]; read-out: IC50, opioid binding, μ, rat cerebral cortex, [3H]DAMGO 1 nM, 60 minutes/22° C.): 3.29 µM; IC50 (DA uptake): 7.6 µM"
"COC1(c2cccc(O)c2)CCCCC1CN(C)C [(R,R)-ODMOMT, (1R,2R)-(+)-Desmethylmethyltramadol]",2.1,0.427,2.85,0.03 µM,–,6.8,"Affinity for the μ receptor compared with ODMT and racemic tramadol (μ receptor [2]): comparable to the corresponding enantiomer/racemate of ODMT, and much greater than that of racemic tramadol"
"CN(C)CC1CCCCC1(O)c1cccc(O)c1 (single isomer, unassigned) [(S,S)-ODMT, HCl, reference compound]",–,–,–,–,–,7.1,IC50 (5-HT uptake; HCl): 4.4 µM
"CO[C@@]1(c2cccc(O)c2)CCCC[C@H]1CN(C)C [(S,S)-ODMOMT, (1S,2S)-(−)-Desmethylmethyltramadol]",5,2.44,–,0.566 µM,–,0.051,"Affinity for the μ receptor compared with ODMT and racemic tramadol (μ receptor [2]): comparable to the corresponding enantiomer/racemate of ODMT, and much greater than that of racemic tramadol; Blocking NE uptake compared with racemic tramadol or (S,S)-ODMT (NE uptake): more effective at blocking NE uptake than racemic tramadol or (S,S)-ODMT"
"COC1(c2cccc(O)c2)CCCCC1CN(C)C (racemic) [(R,R/S,S)-ODMOMT, (+/−)-cis-Desmethylmethyltramadol]",2.6,0.789,4.92,0.056 µM,–,0.12,"Affinity for the μ receptor compared with ODMT and racemic tramadol (μ receptor [2]): comparable to the corresponding enantiomer/racemate of ODMT, and much greater than that of racemic tramadol; Blocking NE uptake compared with racemic tramadol or (S,S)-ODMT (NE uptake): more effective at blocking NE uptake than racemic tramadol or (S,S)-ODMT"

# Reference: patent US6780891B2, “Tramadol analogs and uses thereof” (Sepracor Inc., priority 2001, dated 2004)
